# Laboratory results from paper PMC8154566, “Scaffold-Hopping Strategy on a Series of Proteasome Inhibitors Led to a Preclinical Candidate for the Treatment of Visceral Leishmaniasis” (Journal of Medicinal Chemistry, 2021).
# Like-named read-outs stand apart in the source and are kept apart here. Marks after values point to notes of the source that are not given here.
# Columns and labels:
# [1] = Kinetic aqueous solubility by CLND; assay type: physicochemical
# Procedure: We had successfully used these criteria in the hit to lead stage to identify compounds for in vivo proof-of-concept studies in another program, which subsequently led to the identification of preclinical candidate DDD853651/GSK3186899 active against CRK12.[7] […] A pharmacokinetic (PK) study was thus performed, dosed at 10 mg/kg po and 3 mg/kg iv. […] With the limited knowledge of the PK/PD drivers for the treatment of VL, we considered this to be a suitable profile for the progression of 4 into a previously reported mouse efficacy model of VL,[6],[7],[17],[18] where it was dosed twice daily at 50 mg/kg ip in order to further maximize exposure and give the best chance of achieving proof-of-concept.
# (§1) Intramacrophage L. donovani Assay. This assay was conducted as previously described, except for compound exposure time, which was 96 h instead of 72 h.4
# (§2) Intrinsic Clearance. This assay was conducted as previously described.5 Aqueous Solubility. This assay was conducted as previously described.6
# (§3) FaSSIF Solublity. This assay was conducted as previously described.5,7
# (§4) In vivo Mouse Efficacy Studies. In vivo studies were carried out as previously described, with minor modifications.7 Briefly: Control drug used was Miltefosine (30 mg/kg orally, twice daily for 5 days), vehicle used was 10% (v/v) dimethyl sulfoxide (DMSO), 40% polyethylene glycol 400, and 50% deionized water (10 Ml/kg orally, twice daily for 5 days) and mice were treated with test compound intraperitoneally (50 mg/kg twice daily for 5 days). 5
# (§5) All regulated procedures on living animals were carried out under the authority of a project license issued by the Home Office under the Animals (Scientific Procedures) Act 1986, as amended in 2012 (and in compliance with EU Directive EU/2010/63). Infected animals had access to food and water ad libitum and were housed under a 12 hour light/dark photoperiod. Animals used in these experiments were female NMRI and Balb/c mice (Harlan, UK).
# (§6) Test compound DDD01008714 was dosed orally (P.O.) at 10 mg free base/kg (dose volume 10 mL/kg; dose vehicle: 10% (vol/vol) dimethyl sulfoxide (DMSO), 40% polyethylene glycol 400 (PEG400) and 50% deionized water) to female NMRI mice (n = 3) or intravenously (I.V.) at 3 mg free base/kg (dose volume 5 mL/kg; dose vehicle: 10% (vol/vol) dimethyl sulfoxide (DMSO) and 90% Saline) to female Balb/c mice (n = 3). Blood samples (10 μL) where taken from the tail vein of […]
# [2] = biological target: LCK (Homo sapiens, UniProt P06239); experiment: Kinase screen LCK; assay type: biochemical
# Sequence of LCK (P06239 whole entry): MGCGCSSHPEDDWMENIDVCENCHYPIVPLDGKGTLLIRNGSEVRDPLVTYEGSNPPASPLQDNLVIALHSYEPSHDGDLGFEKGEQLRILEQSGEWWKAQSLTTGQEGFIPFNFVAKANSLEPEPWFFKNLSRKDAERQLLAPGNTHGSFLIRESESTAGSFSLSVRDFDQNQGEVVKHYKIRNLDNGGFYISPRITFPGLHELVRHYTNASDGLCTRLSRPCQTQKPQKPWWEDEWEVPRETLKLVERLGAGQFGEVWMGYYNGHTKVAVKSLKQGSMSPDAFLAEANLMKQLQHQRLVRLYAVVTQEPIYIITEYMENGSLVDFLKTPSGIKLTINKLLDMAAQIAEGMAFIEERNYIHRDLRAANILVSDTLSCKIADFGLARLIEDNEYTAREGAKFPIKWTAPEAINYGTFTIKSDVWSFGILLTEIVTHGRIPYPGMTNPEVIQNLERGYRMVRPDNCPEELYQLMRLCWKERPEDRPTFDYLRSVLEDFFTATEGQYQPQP
# [3] = biological target: PI3Kγ (Homo sapiens, UniProt P48736); experiment: Kinase screen PI3Kγ; assay type: biochemical
# Sequence of PI3Kγ (P48736 whole entry): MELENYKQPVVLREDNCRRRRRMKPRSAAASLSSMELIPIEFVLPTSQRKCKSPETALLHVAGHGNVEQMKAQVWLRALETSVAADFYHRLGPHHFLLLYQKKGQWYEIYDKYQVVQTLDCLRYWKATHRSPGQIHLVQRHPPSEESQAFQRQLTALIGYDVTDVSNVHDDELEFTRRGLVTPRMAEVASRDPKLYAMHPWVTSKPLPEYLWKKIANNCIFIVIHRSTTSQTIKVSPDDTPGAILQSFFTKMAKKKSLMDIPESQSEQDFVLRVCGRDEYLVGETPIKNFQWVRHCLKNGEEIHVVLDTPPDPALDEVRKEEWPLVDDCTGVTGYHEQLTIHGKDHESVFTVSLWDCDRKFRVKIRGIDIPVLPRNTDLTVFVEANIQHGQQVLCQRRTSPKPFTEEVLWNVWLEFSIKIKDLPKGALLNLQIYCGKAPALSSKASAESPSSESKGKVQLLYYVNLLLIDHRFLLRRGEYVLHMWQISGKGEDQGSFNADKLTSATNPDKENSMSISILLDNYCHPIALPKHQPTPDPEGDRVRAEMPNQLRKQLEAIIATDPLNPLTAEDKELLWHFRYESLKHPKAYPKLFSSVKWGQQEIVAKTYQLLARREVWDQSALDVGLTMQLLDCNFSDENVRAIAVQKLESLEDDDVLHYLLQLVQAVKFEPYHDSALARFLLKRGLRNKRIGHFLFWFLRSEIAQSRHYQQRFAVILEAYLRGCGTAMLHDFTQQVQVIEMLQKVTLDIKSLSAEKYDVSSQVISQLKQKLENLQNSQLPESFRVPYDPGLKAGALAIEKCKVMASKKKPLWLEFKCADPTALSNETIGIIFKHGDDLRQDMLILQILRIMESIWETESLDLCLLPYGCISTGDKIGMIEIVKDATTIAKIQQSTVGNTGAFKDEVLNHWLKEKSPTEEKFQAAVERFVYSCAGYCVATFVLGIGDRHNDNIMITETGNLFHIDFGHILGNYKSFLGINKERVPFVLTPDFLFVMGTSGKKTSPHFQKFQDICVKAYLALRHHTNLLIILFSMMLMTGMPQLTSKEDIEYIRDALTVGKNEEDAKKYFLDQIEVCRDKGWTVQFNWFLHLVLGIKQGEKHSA
# [4] = biological target: AuroraB (Homo sapiens, UniProt Q96GD4); experiment: Kinase screen AuroraB; assay type: biochemical
# Sequence of AuroraB (Q96GD4 whole entry): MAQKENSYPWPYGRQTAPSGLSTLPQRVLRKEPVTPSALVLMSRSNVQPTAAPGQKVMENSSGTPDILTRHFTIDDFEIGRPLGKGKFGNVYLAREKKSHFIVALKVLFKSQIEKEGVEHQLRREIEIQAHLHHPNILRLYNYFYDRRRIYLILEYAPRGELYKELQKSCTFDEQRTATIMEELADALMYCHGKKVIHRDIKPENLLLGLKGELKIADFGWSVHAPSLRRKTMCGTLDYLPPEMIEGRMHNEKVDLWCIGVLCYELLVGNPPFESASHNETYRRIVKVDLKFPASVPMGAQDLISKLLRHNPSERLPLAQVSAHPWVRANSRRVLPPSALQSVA
# [5] = tested on: L. donovani amastigotes; details: cited from earlier work
# [6] = tested on: THP-1 cells; details: cited from earlier work
# [7] = design: method as in PMID 30962368; details: cited from earlier work
# [8] = design: method as in PMID 30962368; details: dosed in rats at 300 mg/kg; cited from earlier work
# [9] = Table 6; mouse liver microsomes; cited from earlier work
# [10] = tested on: L. donovani amastigotes; experiment: INMAC assay: intramacrophage L. donovani in differentiated THP-1 cells; assay type: cell-based, Leishmania donovani; details: for EC50: THP-1, read-out: INMAC pEC50 (converted); for EC50 / INMAC pEC50: Table 6, at least three replicates, SD ≤0.4; for LdInMac pIC50: supplementary csv
# Procedure: (§7) Intramacrophage L. donovani Assay. This assay was conducted as previously described, except for […]
# [11] = tested on: THP-1 cells; experiment: THP-1 host cell read-out of the INMAC assay; assay type: cell-based; details: for EC50 / IC50: Homo sapiens; for EC50 / THP-1 pEC50: Table 6; for EC50: read-out: THP-1 pEC50 (converted)
# Procedure: as §7
# [12] = FaSSIF (fasted state simulated intestinal fluid) solubility; assay type: physicochemical; details: for solubility at 4 h: pH 6.5, Table 6
# Procedure: as §1, §2, §3, §4, §5, §6
# [13] = Mouse liver microsomal intrinsic clearance; assay type: in vitro ADME; details: for Mouse CLi: Table 6, mouse liver microsomes; for Cli (mouse, ml/min/g): supplementary csv
# Procedure: as §1, §2, §3, §4, §5, §6
# [14] = Table 6, kinetic, CLND, read-out: Aq. solubility
# [15] = supplementary csv, flagged as reported previously in the main tables
# [16] = THP-1, supplementary csv, read-out: THP1 pIC50 (converted)
# [17] = supplementary csv, read-out: Aqueous Solubility
Compound,"solubility [1, 14] [µM]",EC50 ([10]; Leishmania donovani) [µM],EC50 ([11]; THP-1) [µM],"IC50 [11, 16] [µM]","solubility [1, 17] [µM]",solubility at 4 h [12] [µM],solubility ([12]; supplementary csv) [µM],Mouse CLi [13] [mL/min/g],"Cli (mouse, ml/min/g) [13] [mL/min/g]",other results
O=C(Nc1ccc(F)c(-c2ccn3c(N4CCOCC4)cnc3n2)c1)N1CCCC1 [Compound 1],420,,,,,,,,,"pIC50 LCK [2]: < 4.5; pIC50 PI3Kγ [3]: < 4.5; pIC50 AuroraB [4]: < 4.5; INMAC pEC50 ([5]; Table 5): 5.8; LdInMac pIC50 [5, 15]: 5.8; THP-1 pEC50 ([6]; Table 5): <4.3; THP1 pIC50 [6, 15]: <4.3; Ames assay result [7]: negative; predicted safety margin [8]: at least 37 fold; Mouse CLi [9]: 0.8^e mL/min/g"
O=C(Nc1cccc(-c2nc3ncccc3o2)c1)c1ccco1 [Compound 3],,,,,,,,,,INMAC pEC50 ([5]; Table 3): 5.2; THP-1 pEC50 ([6]; Table 3): <4.3
"CC(=O)N1CCN(c2cnc3nc(-c4cc(NC(=O)N5CCCC5)ccc4F)ccn23)CC1 [Compound 36, N-(3-(3-(4-Acetylpiperazin-1-yl)imidazo[1,2-a]pyrimidin-7-yl)-4-fluorophenyl)pyrrolidine-1-carboxamide]",≥ 381,> 50.1,> 50.1,> 50.1,≥ 380,1310,> 1000,1.5,1.5,"IC50 ([10]; Leishmania donovani, THP-1, read-out: LdInMac pIC50 (converted)): > 50.1 µM"
"CC1CN(c2cnc3nc(-c4cc(NC(=O)N5CCCC5)ccc4F)ccn23)CCO1 (centres unmarked) [Compound 38, N-(4-Fluoro-3-(3-(2-methylmorpholino)imidazo[1,2-a]pyrimidin-7-yl)phenyl)pyrrolidine-1-carboxamide]",248,0.794,50.1,50.1,250,252,250,1.7,1.7,
"C[C@@H]1CN(c2cnc3nc(-c4cc(NC(=O)N5CCCC5)ccc4F)ccn23)C[C@H](C)O1 [Compound 41, N-(3-(3-((2S,6R)-2,6-Dimethylmorpholino)imidazo[1,2-a]pyrimidin-7-yl)-4-fluorophenyl)pyrrolidine-1-carboxamide]",142,1.58,63.1,,170,372,365,3.4,3.4,"IC50 ([11]; THP-1, read-out: THP1 pIC50 (converted)): 63.1 µM"
"CC1(C)CN(c2cnc3nc(-c4cc(NC(=O)N5CCCC5)ccc4F)ccn23)CCO1 [Compound 42, N-(3-(3-(2,2-Dimethylmorpholino)imidazo[1,2-a]pyrimidin-7-yl)-4-fluorophenyl)pyrrolidine-1-carboxamide]",247,1,25.1,25.1,250,1840,> 1000,2.9,2.9,
"CC1(C)COCCN1c1cnc2nc(-c3cc(NC(=O)N4CCCC4)ccc3F)ccn12 [Compound 43, N-(3-(3-(3,3-Dimethylmorpholino)imidazo[1,2-a]pyrimidin-7-yl)-4-fluorophenyl)pyrrolidine-1-carboxamide]",210,0.794,50.1,50.1,,627,630,6.0,6,
"O=C(Nc1ccc(F)c(-c2ccn3c(N4CCC5(CCOC5)C4)cnc3n2)c1)N1CCCC1 (centres unmarked) [Compound 44, N-(3-(3-(2-Oxa-7-azaspiro[4.4]nonan-7-yl)imidazo[1,2-a]pyrimidin-7-yl)-4-fluorophenyl)pyrrolidine-1-carboxamide]",339,1.26,50.1,50.1,340,852,850,3.7,3.7,
"CC(C)Nc1cnc2nc(-c3cc(NC(=O)N4CCCC4)ccc3F)ccn12 [Compound 45, N-(4-Fluoro-3-(3-(isopropylamino)imidazo[1,2-a]pyrimidin-7-yl)phenyl)pyrrolidine-1-carboxamide]",124,2.51,50.1,50.1,120,13,,5.2,5.2,
"(R)-N-(4-Fluoro-3-(3-(3-methylmorpholino)imidazo[1,2-a]pyrimidin-7-yl)phenyl)pyrrolidine-1-carboxamide [Compound 39]",≥362,,,,,,,2.7,2.7,"INMAC pEC50 [10]: 5.9; LdInMac pIC50 [10]: 5.9; THP-1 pEC50 [11]: 4.3; THP1 pIC50 ([11]; supplementary csv): 4.3; Aqueous Solubility ([1]; supplementary csv): ≥ 360 µM; FaSSIF solubility ([12]; Table 6): 1,322 μM; FaSSIF solubility ([12]; supplementary csv): >1000 µM"
"(S)-N-(4-Fluoro-3-(3-(3-methylmorpholino)imidazo[1,2-a]pyrimidin-7-yl)phenyl)pyrrolidine-1-carboxamide [Compound 40]",345,,,,,,,1.8,1.8,"INMAC pEC50 [10]: 6.0; LdInMac pIC50 [10]: 6; THP-1 pEC50 [11]: 4.3; THP1 pIC50 ([11]; supplementary csv): 4.3; Aqueous Solubility ([1]; supplementary csv): 350 µM; FaSSIF solubility ([12]; Table 6): 1,578 μM; FaSSIF solubility ([12]; supplementary csv): >1000 µM"
